SMILES strings stand for the structures. Activity calls are given as the source filed them. No rule for the calls is given here.

Results on 6 compounds are retold here after PubChem BioAssay AID1259407 (Chemical Carcinogenesis Research Information System (CCRIS), 2018).

The subject of the data set is CCRIS mutagenicity, Ames/micronucleus/aberration tests. Briefly: CCRIS mutagenicity studies.
Setting [1] is: Test System: AMES SALMONELLA TYPHIMURIUM, Strain/Indicator: TA98, Metabolic Activation: HAMSTER, LIVER, S-9, AROCLOR 1254 (10%), Method: PREINCUBATION
Where [2] appears, read: Test System: AMES SALMONELLA TYPHIMURIUM, Strain/Indicator: TA98, Metabolic Activation: NONE, Method: PREINCUBATION
Setting [3] is: Test System: AMES SALMONELLA TYPHIMURIUM, Strain/Indicator: TA98, Metabolic Activation: RAT, LIVER, S-9, AROCLOR 1254 (10%), Method: PREINCUBATION
Setting [4] is: Test System: AMES SALMONELLA TYPHIMURIUM, Strain/Indicator: TA100, Metabolic Activation: HAMSTER, LIVER, S-9, AROCLOR 1254 (10%), Method: PREINCUBATION
Setting [5] is: Test System: AMES SALMONELLA TYPHIMURIUM, Strain/Indicator: TA100, Metabolic Activation: NONE, Method: PREINCUBATION
[6] abbreviates: Test System: AMES SALMONELLA TYPHIMURIUM, Strain/Indicator: TA100, Metabolic Activation: RAT, LIVER, S-9, AROCLOR 1254 (10%), Method: PREINCUBATION
Where [7] appears, read: Test System: AMES SALMONELLA TYPHIMURIUM, Strain/Indicator: TA1535, Metabolic Activation: HAMSTER, LIVER, S-9, AROCLOR 1254 (10%), Method: PREINCUBATION
[8] abbreviates: Test System: AMES SALMONELLA TYPHIMURIUM, Strain/Indicator: TA1535, Metabolic Activation: NONE, Method: PREINCUBATION
Where [9] appears, read: Test System: AMES SALMONELLA TYPHIMURIUM, Strain/Indicator: TA1535, Metabolic Activation: RAT, LIVER, S-9, AROCLOR 1254 (10%), Method: PREINCUBATION
Where [10] appears, read: Test System: AMES SALMONELLA TYPHIMURIUM, Strain/Indicator: TA1537, Metabolic Activation: HAMSTER, LIVER, S-9, AROCLOR 1254 (10%), Method: PREINCUBATION
[11] abbreviates: Test System: AMES SALMONELLA TYPHIMURIUM, Strain/Indicator: TA1537, Metabolic Activation: NONE, Method: PREINCUBATION
The mark [12] stands for this setting: Test System: AMES SALMONELLA TYPHIMURIUM, Strain/Indicator: TA1537, Metabolic Activation: RAT, LIVER, S-9, AROCLOR 1254 (10%), Method: PREINCUBATION
Where [13] appears, read: Test System: AMES SALMONELLA TYPHIMURIUM, Strain/Indicator: TA98, Metabolic Activation: NONE, Method: STANDARD PLATE.

Consider `O=C1c2ccccc2-c2ccc3c4c(ccc1c24)-c1ccccc1C3=O`, for which the mutagenic call is, setting by setting: under setting [1], “inactive; negative”; under setting [2], “inactive; negative”; under setting [3], “inactive; negative”; under setting [4], “inactive; negative”; under setting [5], “inactive; negative”; under setting [6], “inactive; negative”. Besides, the mutagenic call is “inactive; negative” under setting [7]; “inactive; negative” under setting [8]; “inactive; negative” under setting [9]; “inactive; negative” under setting [10]; “inactive; negative” under setting [11]; “inactive; negative” under setting [12]. Also, for the setting “Test System: MOUSE LYMPHOMA, Strain/Indicator: L5178Y (TK+/TK-), Metabolic Activation: RAT, LIVER, S-9, AROCLOR, Method: SUSPENSION/PLATE”, the mutagenic call is “active; positive”.

Take `Cc1cc(-c2ccccc2C)ccc1N`: the mutagenic call was “active; positive” (Test System: AMES SALMONELLA TYPHIMURIUM, Strain/Indicator: TA98, Metabolic Activation: RAT, LIVER, S-9, AROCLOR 1254, Method: STANDARD PLATE); “active; positive” (Test System: AMES SALMONELLA TYPHIMURIUM, Strain/Indicator: TA100, Metabolic Activation: RAT, LIVER, S-9, AROCLOR 1254, Method: STANDARD PLATE); “active; positive” (Test System: AMES SALMONELLA TYPHIMURIUM, Strain/Indicator: TA1538, Metabolic Activation: RAT, LIVER, S-9, AROCLOR 1254, Method: STANDARD PLATE); “active; positive” (Test System: UDS RODENT HEPATOCYTES, Strain/Indicator: THY INCORP (NON-S-PHASE), Method: AUTORADIOGRAPHY).

With `O=[N+]([O-])c1cc2c3c(c1)CCc1cccc(c1-3)CC2`, the mutagenic call runs as follows: (Test System: AMES SALMONELLA TYPHIMURIUM, Strain/Indicator: TA98(1,8-DNP6), Metabolic Activation: NONE, Method: STANDARD PLATE) “active; positive”; (Test System: AMES SALMONELLA TYPHIMURIUM, Strain/Indicator: TA98(NR), Metabolic Activation: NONE, Method: STANDARD PLATE) “active; positive”; under setting [13], “active; positive”.

Consider `C[C@@H]1O[C@@H]1c1ccccc1`, for which the mutagenic call is, setting by setting: (Test System: AMES SALMONELLA TYPHIMURIUM, Strain/Indicator: TA98, Metabolic Activation: NONE, Method: PREINCUBATION (PHOSPHATE-BUFFERED KCL OR SOLUTE-FREE WATER MEDIA)) “inactive; negative”; (Test System: AMES SALMONELLA TYPHIMURIUM, Strain/Indicator: TA100, Metabolic Activation: NONE, Method: PREINCUBATION (PHOSPHATE-BUFFERED KCL OR SOLUTE-FREE WATER MEDIA)) “inactive; negative”; (Test System: AMES SALMONELLA TYPHIMURIUM, Strain/Indicator: TA104, Metabolic Activation: NONE, Method: PREINCUBATION (PHOSPHATE-BUFFERED KCL OR SOLUTE-FREE WATER MEDIA)) “inactive; negative”; (Test System: CHINESE HAMSTER V-79, Strain/Indicator: V-79 (HPRT)/6-THIOGUANINE, Metabolic Activation: NONE) “inactive; negative”.

For `O=S(=O)(O)Oc1c2ccccc2c2ccc3cccc4ccc1c2c43`, the mutagenic call under setting [2] was “inactive; negative” and the mutagenic call (Test System: AMES SALMONELLA TYPHIMURIUM, Strain/Indicator: TA98, Metabolic Activation: RAT, LUNG, S-9, Method: PREINCUBATION) is “inactive; negative”.

In the case of `O=c1[nH]cc(F)c(=O)[nH]1`, the mutagenic call runs as follows: (End Point: IN VITRO MICRONUCLEUS, Test System: CHL/IU CELLS, Metabolic Activation: NONE) “active; positive”; (End Point: IN VIVO CHROMOSOMAL ABERRATIONS, Test System: BONE MARROW CELLS, Species: MOUSE, Strain/Sex: SWISS/MALE, FEMALE, Route: IP) “active; positive (aberrant metaphases)”; (End Point: IN VIVO MICRONUCLEUS, Test System: BLOOD ERYTHROCYTES, Species: MOUSE, Strain/Sex: CD-1/MALE, Route: INTRAPERITONEAL INJECTION) “active; positive (at highest dose)”; (End Point: IN VIVO MICRONUCLEUS, Test System: BONE MARROW POLYCHROMATIC ERYTHROCYTES, Species: MOUSE, Strain/Sex: SWISS/MALE, FEMALE, Route: IP) “active; positive”; (End Point: In vitro micronucleus, Test System: Human lymphoblastoid TK6 cells, Metabolic Activation: None) “active; positive (p<0.001)”; (End Point: In vivo micronucleus, Test System: Micronucleated hepatocytes, Species: Rat, Strain/Sex: F344/Male, Route: Intraperitoneal) “inactive; negative”. In addition, the mutagenic call under setting [1] was “inactive; negative”; the mutagenic call under setting [2] is “inactive; negative”; the mutagenic call under setting [13] is “inactive; negative”; the mutagenic call under setting [3] was “inactive; negative”; the mutagenic call (Test System: AMES SALMONELLA TYPHIMURIUM, Strain/Indicator: TA98, Metabolic Activation: S-9, Method: PREINCUBATION) is “inactive; negative”; the mutagenic call (Test System: AMES SALMONELLA TYPHIMURIUM, Strain/Indicator: TA98, Metabolic Activation: S-9, Method: STANDARD PLATE) was “inactive; negative”. Further, the mutagenic call by setting is: under setting [4], “inactive; negative”; under setting [5], “inactive; negative”; (Test System: AMES SALMONELLA TYPHIMURIUM, Strain/Indicator: TA100, Metabolic Activation: NONE, Method: STANDARD PLATE) “inactive; negative”; under setting [6], “inactive; negative”; (Test System: AMES SALMONELLA TYPHIMURIUM, Strain/Indicator: TA100, Metabolic Activation: S-9, Method: PREINCUBATION) “inactive; negative”; (Test System: AMES SALMONELLA TYPHIMURIUM, Strain/Indicator: TA100, Metabolic Activation: S-9, Method: STANDARD PLATE) “inactive; negative”. The mutagenic call was “inactive; negative” (Test System: AMES SALMONELLA TYPHIMURIUM, Strain/Indicator: TA102, Metabolic Activation: NONE, Method: STANDARD PLATE); “inactive; negative” under setting [7]; “inactive; negative” under setting [8]; “inactive; negative” under setting [9]; “inactive; negative” under setting [10]; “inactive; negative” under setting [11]. The mutagenic call is “inactive; negative” (Test System: AMES SALMONELLA TYPHIMURIUM, Strain/Indicator: TA1537, Metabolic Activation: NONE, Method: STANDARD PLATE); “inactive; negative” under setting [12]; “inactive; negative” (Test System: AMES SALMONELLA TYPHIMURIUM, Strain/Indicator: TA2638, Metabolic Activation: NONE, Method: STANDARD PLATE); “inactive; negative” (Test System: E. COLI, Strain/Indicator: WP2 (HCR), Metabolic Activation: NONE, Method: STANDARD PLATE); “inactive; negative” (Test System: E. COLI, Strain/Indicator: WP2 (HCR), Metabolic Activation: S-9, Method: STANDARD PLATE); “inactive; negative” (Test System: E. COLI, Strain/Indicator: WP2 (PKM101), Metabolic Activation: NONE, Method: STANDARD PLATE). For the same compound, the mutagenic call is “inactive; negative” (Test System: E. COLI, Strain/Indicator: WP2 UVRA (PKM101), Metabolic Activation: NONE, Method: STANDARD PLATE); “active; positive” (Test System: MOUSE LYMPHOMA, Strain/Indicator: L5178Y (TK+/TK-), Metabolic Activation: NONE, Method: MICROWELL); “active; positive” (Test System: MOUSE LYMPHOMA, Strain/Indicator: L5178Y (TK+/TK-), Metabolic Activation: S-9, Method: MICROWELL).
